According to patent US11612634B2 (priority 2020, dated 2023):

Tests used:
[1] = system: morphine analgesic tolerance, inflammatory pain rat model; experiment: Effect on morphine analgesic tolerance in Carr-induced inflammatory pain rat model; assay type: in vivo; settings: for effect of cysteine-mutated peptide on morphine analgesic tolerance: Carr model, with morphine, dose not given
Experimental: The Carr-induced inflammatory pain model was built according to a published method (Alessandri-Haber N, et al. Neurosci. Vol 29(19), pp. 6217-6288, 2009) for evaluating an analgesic effect of drugs administered by intraplantar injection. Specifically, 6 μL of 1 wt % Carr solution was injected into the rats between the 2nd and 3rd toes of a left hind paw to induce hyperalgesia, which was manifested as plantar swelling and a declined pain threshold of the rats within 1 hour after the injection. Those rats with a PWT lower than 100 gf were considered to be a desired Carr-induced inflammatory pain model, those rats with the PWT higher than 100 gf was removed.
(§1) (1) 24 healthy adult SD rats, weighing 180-220 g, were selected, reinjected with 6 μL of a 1 wt % Carr solution and divided into 4 groups randomly and averagely (i.e., groups A-D). The group A was injected with normal saline; the group B was intradermally injected with 0.1 μg/kg of the short peptide P10581 through the plantar surface of the left hind paw; the group C was intradermally injected with 0.1 μg/kg of the short peptide P10581 and then with 5 mg/kg of morphine 30 min later through the plantar surface of the left hind paw; and the group D was intradermally injected with 0.05 μg/kg of the short peptide P10581, and then with 5 mg/kg of morphine 30 min later through the plantar surface of the left hind paw. 1 h later, the PWT of each group was recorded when the mechanical withdrawal of the left hind paw occurred, and each rat was measured 3-5 times at an interval of 5-10 min.
(§2) (2) The drug was injected every 2 h according to the above-mentioned administration dose and time (seven times in total), and the PWT was recorded.
(S1) By means of molecular biological techniques, two cysteine residues (Cys10 and Cys11) in the short peptide P10581 were replaced with alanine (Ala), and the resulting peptide was named P10581-1 (SEQ ID NO: 2).
(S2) Three cysteine residues (Cys10, Cys11 and Cys17) in the short peptide P10581 were replaced with alanine (Ala), and the resulting peptide was named P10581-2 (SEQ ID NO: 3).
The rat was injected with 6 μL of 1 wt % Carr to establish a Carr-induced inflammatory pain model, and the effect of the short peptides P10581, P10581-1 and P10581-2 on the morphine analgesic tolerance was analyzed according to Experimental Example 1. […]

[2] = system: Carr-induced inflammatory pain rat model; experiment: Analgesic effect on mechanical hyperalgesia (PWT) in Carr-induced inflammatory pain rat model; assay type: in vivo; settings: 2 μg/kg i.d. plantar, every 2 h, six injections
Experimental: The mechanical hyperalgesia of rats was measured by 38500-pressure application measurement (PAM) system (Ugo Basile Biological Research Apparatus, Comerio-Varese, Italy), which consisted of a hand-held part and an integrated electronic part. The hand-held part was a force sensor which was designed according to a Randall-Selitto algesimeter. The integrated electronic part was configured to automatically record a maximum PWT applied to the left hind paw of the rats.
The Carr-induced inflammatory pain model was built according to a published method (Alessandri-Haber N, et al. Neurosci. Vol 29(19), pp. 6217-6288, 2009) for evaluating an analgesic effect of drugs administered by intraplantar injection. […] Those rats with a PWT lower than 100 gf were considered to be a desired Carr-induced inflammatory pain model, those rats with the PWT higher than 100 gf was removed.
(S1) A total of 18 healthy adult SD rats, weighing 180-220 g, were selected, numbered on tails and placed in the same cage.
(S2) The rats were maintained in a measuring room for 2 h for adaptation.
The measurement was repeated 3-5 times for each rat with an interval of 5-10 min. The results of multiple PWT measurements were averaged as the Baseline (BL) (unit: g). After that, 6 μL of 1 wt % Carr was intradermally injected into the plantar surface of the hind paw to build an inflammatory pain rat model.
(S4) The PWT of the left hind paw of each rat was measured 1 h after the Carr injection. Rats with a higher inflammatory threshold and rats with a lower inflammatory threshold were mixed and equally divided into three groups (group A, group B and group C), each for six rats, such that any two groups of rats had similar distribution of inflammatory threshold. The groups A, B and C were intradermally injected with normal saline, 5 mg/kg of morphine and 2 μg/kg of the short peptide P10581, respectively, at the plantar surface of the left hind paw. 1 h later, the PWT of the left hind paw of the rats in each group was measured 3-5 times at an interval of 5-10 min. The multiple PWT measurement results were averaged as the practical PWT (unit: g). Then the drug was injected every 2 h according to the above-mentioned administration dose and time, and the corresponding PWT was recorded (six injections in total).
as §1, §2
(S1) A total of 20 healthy adult SD rats (half male and half female), weighing 180-220 g, were selected, numbered on tails and transferred to the same cage.
(S4) The PWT of the left hind paw of each rat was measured 1 h after the Carr injection.

Sequence | effect of cysteine-mutated peptide on morphine analgesic tolerance [1] | decrease in the analgesic effect compared to P10581 ([1]; after 8 injections, with morphine (FIG. 5C)) | analgesic effect on Carr-induced inflammatory pain threshold (PWT) [2] | analgesic tolerance after repeated injection [2] | effect on morphine analgesic tolerance ([1]; 0.1 μg/kg peptide i.d. 30 min before 5 mg/kg morphine, every 2 h)
WKCNPNDDKAARPKLKA [P10581-2, P10581 with Cys10, Cys11 and Cys17 replaced with alanine] | no relieving effect on the morphine analgesic tolerance | – | – | – | –
WKCNPNDDKAARPKLKC [P10581-1, P10581 with Cys10 and Cys11 replaced with alanine] | merely partially relieve the morphine analgesic tolerance | 57.6% | – | – | –
WKCNPNDDKCR [P10583, comparative short peptide, reference compound] | – | – | completely reverse the Carr-induced inflammatory pain threshold | without developing the analgesic tolerance | no relieving effect
